Assay results from patent US6635671B1, “Compounds which affect mRNA stability and uses therefor” (Novation Pharmaceuticals Inc., priority 1998, dated 2003).
Like-named read-outs stand apart in the source and are kept apart here.

Experiments:
[1] = test system: THP-1 clone No. 53 (pGL2_Neo / pGL2-Control); experiment: Luciferase reporter gene assay, control clone No. 53 (no instability sequence); format: cell-based, human; design: Luciferase reporter gene assay, luciferase activity: unit not given here; conditions: for Luciferase reporter gene assay, luciferase activity: clone 53
Description: (§1) In order to obtain a vector for stable integration into THP-1 cells, a XhoI-SalI fragment of the neo resistant gene (expressing aminoglycoside 3′ phosphotransferase) derived from pMCIneo (Stratagene) is subcloned into the SalI site of pGL2Control (Promega). This resulting plasmid was called pGL2_Neo. A 30 bp fragment (containing three tandem AUUUA motifs, based on the IL-Iβ3′UTR sequence) obtained by annealing two complementary synthetic oligonucleotides (see FIG. 1) is subcloned into pGL2 Neo using the PflM1 restriction site.
(§2) The resulting vectors pGL2_Neo30 and pGL2_Neo are transfected into THP-1 cells by electroporation. 10^7 cells/ml in 1.3 mM KH2PO4, 7.36 m.M Na2HPO4, 2.44 mM KCl, 124 mm NaCl, 5 mM glucose, 9.6 μM MgCl2 and 16 μM CaCI2 pH 7.2 are transfected with 20 μg of DNA in a Bio-Rad Gene Pulser (250V, 690 μF and indefinite resistance) using a 0.4 cm cuvette. Cells are subsequently cultured in RPMI medium containing 10%FBS, 2mM L-Gln (L-glutamine), 50 μM 2mercaptoethanol and 600 μg/ml of G418 (geneticin). After transfection of pGL2_Neo30 and pGL2_Neo into THP-1 cells, stable cell lines are obtained by selection for G418 resistance and assayed for luciferase activity. One cell line of each transfection is chosen for further analysis; the pGL2_Neo30 cell line is referred to as clone No. 63 and the pGL2_Neo cell line as clone No. 53. No endogenous luciferase activity could be detected in normal THP-1 cells.
(§3) The transfected human monocytic leukemia cell lines, clones No. 53 and 63 are grown in RPMI medium supplemented with 110 U/ml penicillin, 100 μg/ml streptomycin, 2 mM L-Gln and 2 g/l NaHCO3. Heat-treated FBS (5%) is added before use. The cells are grown to a density of 5×10^5/ml and induced to differentiate with 100 U/ml (final concentration) γIFN. Three hours later, 10 μl of LPS (5 μg/ml final concentration) is added. This time point is designated time 0. Compounds are added at various times after LPS addition as indicated.
(§4) In order to adapt the system to the use of 96 well plates, cells are grown in Packard flat bottom white polystyrene microplates (Cat No.6005180) in RPMI medium lacking phenol red (AMIMED). Cells are plated at 5×10^4/well. After treatment of the cells, luciferase is measured using the Packard Luc Lite system (Cat. No.601691 1) according to the manufacturer's instructions in a final volume of 205 μl. Briefly, to a cell suspension of 5×10^5 cells/ml, γIFN (1000 U/ml Boehringer Mannheim No. 1050494) to a final concentration of 100 U/ml and 0.25% (v/v) Luc Lite Enhancer is added. After a 3 hour incubation LPS (50 μg/ml SIGMA L-8274) is added to give 5 μg/ml final concentration. The cells are then plated at 5×10^4/100 l/well into flat bottom white polystyrene microplates (Packard, Cat No. 6005180) and incubated for 16 hours. 5 μl of compound solution or control vehicle is then added and the cells are further incubated as indicated. 100 μl of luciferase substrate solution is added and the plates are covered with TopSeal-A press-on adhesive sealing film (Packard Cat.No. 6005185) before measuring luminescence with a Packard Top Count Scintillation Counter at 22° C. The luciferase signal is stable for at least 90 min.
(§5) The THP-1 cell lines, clone No. 63 (containing PGL2_Neo30) and clone No. 53 (containing pGL2-Control) are grown, differentiated and stimulated with γIFN and LPS identical to normal THP-1 cells. Radicicol analog A is added 16 hours after the addition of LPS and cell extracts are then taken 8 hours later or as indicated. Luciferase activity is inhibited by 1 μM radicicol analog A on average by 50%±17%, in some cases inhibition was as great as 93%, whereas up to 5×10^−6M of radical analog A has no effects on the control clone No. 53, FIG. 3 (solid bars indicate clone No. 53, open bars clone No. 63).
(§6) A number of radicicol analogues are tested for their activity in the reporter assay substantially as described in the previous Examples.

[2] = test system: THP-1 clone No. 63 (pGL2_Neo30; luciferase mRNA with three tandem AUUUA motifs of the IL-1β 3′UTR); experiment: Luciferase reporter gene assay, clone No. 63 (pGL2_Neo30, with mRNA instability sequence); format: cell-based, human; design: Luciferase reporter gene assay, luciferase activity: unit not given here; conditions: for Luciferase reporter gene assay, luciferase activity: clone 63; for inhibition at 1 µM: Homo sapiens, THP-1, clone No. 63
Description: as §1, §2, §3, §4, §5, §6

IL-1β = conditions: THP-1 cells activated by IFN-γ and LPS; cited from earlier work
IL-6 mRNA = conditions: THP-1 cells activated by IFN-γ and LPS; cited from earlier work
IL-1β mRNA = conditions: THP-1 cells activated by IFN-γ and LPS; cited from earlier work
TNF-α mRNA = conditions: THP-1 cells activated by IFN-γ and LPS; cited from earlier work

Compound | Luciferase reporter gene assay, luciferase activity ([1]; 0.5 μM) | Luciferase reporter gene assay, luciferase activity ([1]; 1 μM) | Luciferase reporter gene assay, luciferase activity ([1]; 5 μM) | Luciferase reporter gene assay, luciferase activity ([2]; 0.5 μM) | Luciferase reporter gene assay, luciferase activity ([2]; 1 μM) | Luciferase reporter gene assay, luciferase activity ([2]; 5 μM) | Effect on luciferase activity of control clone ([1]; clone No. 53, up to 5×10^−6M) | Secretion of IL-1β (IL-1β) | Time of degradation of IL-6 mRNA to undetectable levels (IL-6 mRNA) | Time of degradation of IL-1β mRNA to undetectable levels (IL-1β mRNA) | Time of degradation of TNF-α mRNA to undetectable levels (TNF-α mRNA) | inhibition at 1 µM ([2]; 1 μM, added 16 h after LPS, extracts 8 h later, read-out: Inhibition of luciferase activity, on average) | inhibition at 1 µM ([2]; 1 μM, read-out: Inhibition of luciferase activity, greatest inhibition in some cases)
COc1cc(O)c2c(c1)/C=C/CC(O)C(O)C(=O)/C=C\CC(C)OC2=O (stereo not shown) | 114 | 105 | 107 | 97 | 88 | 87 |  |  |  |  |  |  | 
C[C@@H]1C[C@H]2O[C@@H]2/C=C\C=C\C(=O)Cc2c(Cl)c(O)cc(O)c2C(=O)O1 | 68 | 51 | 40 | 42 | 18 | 3 |  |  |  |  |  |  | 
C[C@@H]1C[C@H]2O[C@@H]2CCCCC(=O)Cc2c(Cl)c(O)cc(O)c2C(=O)O1 | 99 | 77 | 69 | 88 | 64 | 57 |  |  |  |  |  |  | 
C[C@@H]1C[C@H]2O[C@@H]2CCCCC(=O)Cc2cc(O)cc(O)c2C(=O)O1 | 83 | 81 | 70 | 80 | 66 | 61 |  |  |  |  |  |  | 
COc1cc(O)c2c(c1)/C=C/CC(O)C(O)C(=O)CCCC(C)OC2=O (stereo not shown) | 103 | 122 | 104 | 107 | 93 | 70 |  |  |  |  |  |  | 
COc1cc(O)c2c(c1OC)/C=C/C[C@H](O)[C@H](O)C(=O)/C=C/C[C@H](C)OC2=O | 97 | 91 | 55 | 96 | 94 | 7 |  |  |  |  |  |  | 
COc1cc(O)c2c(c1OC)/C=C/C[C@H](O)[C@H](O)C(=O)/C=C\C[C@H](C)OC2=O [drawing 13] | 136 | 140 | 108 | 69 | 32 | 9 |  |  |  |  |  |  | 
COc1cc(O)c2c(c1OC)/C=C/C[C@H](O)[C@H](O)C(=O)/C=C\C[C@H](C)OC2=O [radicicol analog A] |  |  |  |  |  |  | no effects | inhibited the secretion of IL-1β | 5 to 8 h | 5 to 8 h | 5 to 8 h | 50% | 93%
